{"source": "patent US11298346B2", "about": "“Methods for treatment of fibrotic diseases” (Beta Cat Pharmaceuticals, Inc., priority 2017, dated 2022)", "key": {"[1]": {"tested_on": "bleomycin-induced idiopathic pulmonary fibrosis (IPF)", "assay": "Nebulized tegavivint nanosuspension in mouse model of bleomycin-induced idiopathic pulmonary fibrosis", "format": "in vivo, C57BL/6 male mice", "procedure": "The purpose of this experiment was to investigate tegavivint nanosuspension in a mouse model of bleomycin-induced idiopathic pulmonary fibrosis (IPF). Test articles 10 were as follows:\nTegavivint (BC2059) in a nano-milled suspension 25 mg/mL in 0.625% poloxamer 188 and 10% sorbitol. The compound was refrigerated at about 4° C.\nNebulizing equipment was Altera ultrasonic eRapid machine nebulizer (model #678G1002).\nAnimals were 8-12 week old C57BL/6 male mice (Jackson Lab, Bar Harbor, Me.).\nMurine model of pulmonary fibrosis was induced by intratracheally (IT) injected bleomycin (APP Pharmaceuticals, Schaumburg, Ill.). One dose of 0.025 U bleomycin dissolved in 50 microliters of Saline 0.9%, or PBS as control was administered to each animal on day 0.\nTegavivint nanosuspension was applied to Group 3 in the form of aerosols, through the method of whole body exposure. The mice were placed inside a plastic box. This box was sealed and connected by one of its sides to the outlet of the nebulizer device, and on the other side to a system of closed water. The whole procedure was carried out inside the fume hood of the animal room. In each treatment session, 5 ml of 25 mg/ml Tegavivint (125 mg) was nebulized over 15 min to each group of 4-5 mice in the chamber. To increase exposure of the mice to the aerosol, Tegavivint that precipitated in the aerosol chamber was collected with a syringe and re-nebulized a second and a third time. Mice were nebulized twice a day between day 5 and day 21 after administration of bleomycin. Group 1 and 2 received nebulized vehicle 5 ml in the same manner.\nThe body weight of animals was recorded on Days 0, 5, 8, 12, 16, 19, and 21.\nMeasurements of lung mechanics were performed on Day 21 as previously described (Morales-Nebreda L, et al. AJRCMB 2015) on Day 21 using a FlexiVent mouse ventilator (Scireq, Montreal, PQ, Canada) according to the protocols established by Scireq. A standard ventilation history for each mouse was obtained with three total lung capacity maneuvers before the forced oscillation and quasistatic pressure-volume curve protocols that were used to calculate airway resistance, dynamic and quasistatic tissue compliance, and elastance.\nOn Day 21 all animals were sacrificed and lungs were harvested. Total lung collagen content was evaluated using the Hydroxyproline Assay as previously described (Morales-Nebreda L, et al. AJRCMB 2015). In brief, mouse lungs were harvested and suspended in 1 ml of 0.5 M acetic acid and then homogenized, first with a tissue homogenizer (60 s on ice) and then using 15 strokes in a Dounce homogenizer (on ice). The resulting homogenate was spun (12,000×g) for 10 minutes, and the supernatant was used for subsequent analyses. Collagen standards were prepared in 0.5 M acetic acid using rat tail collagen (Sigma-Aldrich, St. Louis, Mo.). Picrosirius red dye was prepared by mixing 0.2 g of Sirius red F3B (Sigma-Aldrich) with 200 ml of […]; 1 ml of the Picrosirius red dye was added to 100 μl of the collagen standard or the lung homogenates and then mixed continuously at room temperature on an orbital shaker for 30 minutes. The precipitated collagen was then pelleted and washed once with 0.5 M acetic acid (12,000×g for 15 min each). The resulting pellet was resuspended in 1 ml of 0.5 M NaOH and Sirius red staining was quantified spectrophotometrically (540 nm) using a colorimetric plate reader (Bio-Rad, Hercules, Calif.)."}, "[2]": {"target": "T1, TBL1 (Homo sapiens, UniProt O60907)", "T1 sequence (O60907 1-577)": "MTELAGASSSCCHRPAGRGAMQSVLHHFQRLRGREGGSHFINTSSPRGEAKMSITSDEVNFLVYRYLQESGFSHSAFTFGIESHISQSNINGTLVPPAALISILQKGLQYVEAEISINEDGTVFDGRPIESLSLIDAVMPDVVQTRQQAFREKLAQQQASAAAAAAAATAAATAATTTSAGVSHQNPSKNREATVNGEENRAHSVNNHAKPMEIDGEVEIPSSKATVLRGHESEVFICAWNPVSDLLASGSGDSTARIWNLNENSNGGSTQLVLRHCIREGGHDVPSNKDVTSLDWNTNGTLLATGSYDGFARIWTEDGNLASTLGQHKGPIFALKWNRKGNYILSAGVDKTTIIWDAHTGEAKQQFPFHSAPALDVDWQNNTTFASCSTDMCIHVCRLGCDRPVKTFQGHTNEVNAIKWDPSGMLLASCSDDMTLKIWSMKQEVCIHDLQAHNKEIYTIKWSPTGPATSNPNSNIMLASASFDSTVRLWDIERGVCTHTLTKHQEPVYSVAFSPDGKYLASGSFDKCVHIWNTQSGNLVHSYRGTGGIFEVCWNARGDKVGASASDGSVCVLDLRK", "settings": "background statement, no method given; cited from earlier work"}, "[3]": {"tested_on": "CTNNB1, EGR1, NRG1 and WISP1 mRNA levels", "assay": "TaqMan gene expression analyses in DD180, PF180 and CT38 cells", "format": "cell-based, human", "procedure": "Tegavivint (BC-2059) powder was reconstituted it in 100% dimethyl sulfoxide (DMSO) to a 10_mM stock solution. The stock was diluted to 100 nM in serum-free media (α minimal essential medium, αMEM), and further diluted to 100 pM in serum-free αMEM immediately before the analyses were performed. Serial dilutions from 100 pM down to 0.78 pM were assessed in various assays. 0.001% DMSO in αMEM was used as the vehicle control, and αMEM alone was used as an untreated control, in a subset of analyses.\nGene expression analyses were assessed in triplicate on a Real-Time PCR ABI Prism 7500. Total RNA samples were derived from syngeneic DD and PF cells cultured from the explant tissues from one patient with Dupuytren's disease (DD180 and PF 180) and 1 patient with no history of Dupuytren's disease (CT38) as a normal allogeneic control. RNA quality was assessed on an Agilent 2100 Bioanalyzer and 2 μg of high quality total RNA was reverse transcribed into cDNA first strand using the High-Capacity cDNA Archive Kit (Applied Biosystems) in accordance with the manufacturer's instructions. TaqMan gene expression assays were used to measure CTNNB1, EGR1, NRG1 and WISP1 mRNA levels after 48 hrs of treatment in cells cultured on type-1 collagen coated 6 well trays. The ΔΔCT method was used after confirmation of parallel PCR amplification efficiencies of target and housekeeping genes PCR reactions were carried out under the following conditions: Initial denaturation at 95° C. for 5 min followed by cycles of denaturation (95° C. for 15 sec), primer annealing (60° C. for 1 min) and transcript extension ([…]) for 40 cycles."}, "[4]": {"settings": "Group 3, inhaled tegavivint after bleomycin injury"}, "[5]": {"settings": "Group 3: IT bleomycin Day 0, 5 ml of 25 mg/ml tegavivint aerosol BID Day 5-21, Day 21, individual animals"}, "[6]": {"settings": "≤25 pM, 48 hrs, DD180, PF180, CT38 cells"}}, "note": "Where “and” joins values, the source holds several entries; their conditions need not be identical. Identical values can stand only once.", "data": [{"substance": "Tegavivint", "values": [{"measurement": "body weight loss caused by bleomycin induced lung injury", "setting": "[1]; Group 3, inhaled tegavivint", "result": "reversed the body weight loss"}, {"measurement": "lung compliance", "setting": "[1]; [4]", "result": "reversed the compliance values to near those of the sham-treated controls"}, {"measurement": "total lung collagen content (Hydroxyproline assay)", "setting": "[1]; [4]", "result": "reversed this change and the collagen levels are closed to sham-treated controls"}, {"measurement": "Compliance (ml/cm H20)", "setting": "[1]; [5]", "result": "0.05515 ml/cm H20 and 0.05604 ml/cm H20 and 0.06762 ml/cm H20 and 0.0543 ml/cm H20 and 0.0561 ml/cm H20"}, {"measurement": "Hydroxyproline (μg/half lung)", "setting": "[1]; [5]", "result": "70.016 μg/half lung and 39.44 μg/half lung and 45.68 μg/half lung and 58.784 μg/half lung and 64.296 μg/half lung"}, {"measurement": "Change in body weight (%)", "setting": "[1]; Group 3: IT bleomycin Day 0, 5 ml of 25 mg/ml tegavivint aerosol BID Day 5-21, individual animals", "result": "−2.83% and 5.2% and 7.3% (2×) and 7.9%"}, {"measurement": "interaction with TBL1", "setting": "[2]", "result": "interact with TBL1"}, {"measurement": "effects on the expression of genes that associate with nuclear β-catenin", "setting": "[3]; cells treated with ≥25 pM", "result": "No discernible effects"}, {"measurement": "effects on gene expression", "setting": "[3]; ≤25 pM", "result": "did not identify any consistent effects"}, {"measurement": "CTNNB1 expression", "setting": "[3]; [6]", "result": "no evidence of a compensatory increase"}, {"measurement": "EGR1 expression levels", "setting": "[3]; [6]", "result": "did not see any evidence of BC-2059-induced changes"}, {"measurement": "NRG1 expression levels", "setting": "[3]; [6]", "result": "did not see any evidence of BC-2059-induced changes"}, {"measurement": "WISP1 expression levels", "setting": "[3]; [6]", "result": "did not see any evidence of BC-2059-induced changes"}]}]}
